Test results as given in US8557848B2, “4,5-ring annulated indole derivatives for treating or preventing of HCV and related viral infections” (Merck Sharp & Dohme Corp., priority 2006, dated 2013).
Where two headings read alike, the source gives them in different places.

Experiments:
[1] = test system: HCV replicon cells (replicon RNA level); test: Cell-Based HCV Replicon Assay; details: Hepatitis C virus, 72 h; replicon RNA level by real time PCR (Taqman), cells harvested on day 3; read-out: EC50
Description: To measure cell-based anti-HCV activity of the a Compound of Formula (I), replicon cells were seeded at 5000 cells/well in 96-well collagen I-coated Nunc plates in the presence of the Compound of Formula (I). Various concentrations of a Compound of Formula (I), typically in 10 serial 2-fold dilutions, were added to the assay mixture, with the starting concentration ranging from 250 μM to 1 μM. The final concentration of DMSO was 0.5%, fetal bovine serum was 5%, in the assay media. Cells were harvested on day 3 by the addition of 1× cell lysis buffer (Ambion cat #8721). The replicon RNA level was measured using real time PCR (Taqman assay). The amplicon was located in 5B. The PCR primers were: 5B.2F, ATGGACAGGCGCCCTGA; 5B.2R, […]; the probe sequence was FAM-labeled CACGCCATGCGCTGCGG. GAPDH RNA was used as endogenous control and was amplified in the same reaction as NS5B (multiplex PCR) using primers and VIC-labeled probe recommended by the manufacturer (PE Applied Biosystem). The real-time RT-PCR reactions were run on ABI PRISM 7900HT Sequence Detection System using the following program: 48° C. for 30 min, 95° C. for 10 min, 40 cycles of 95° C. for 15 sec, 60° C. for 1 min. The ΔCT values (CT5B-CTGAPDH) were plotted against the concentration of test compound and fitted to the sigmoid dose-response model using XLfit4 (MDL). EC50 was defined as the concentration of inhibitor necessary to achieve ΔCT=1 over the projected baseline; EC90 the concentration necessary to achieve ΔCT=3.2 over the baseline. Alternatively, to quantitate the absolute amount of replicon RNA, a standard curve was established by including serially diluted T7 transcripts of replicon RNA in the Taqman assay. All Taqman reagents were from PE Applied Biosystems. Such an assay procedure was described in detail in e.g. Malcolm et al., Antimicrobial Agents and Chemotherapy 50: 1013-1020 (2006).
HCV Replicon assay data for selected Compounds of Formula (I) is provided below in Table 1, wherein the compound numbers correspond to the compound numbering set forth in the above specification.

[2] = biological target: T1, HCV NS5B polymerase (NS5BΔCT21, from HCV-Con 1 isolate, genotype 1b) (Hepatitis C virus genotype 1b, UniProt Q9WMX2); test: HCV NS5B Polymerase Inhibition Assay; assay type: biochemical
T1 construct: A soluble C-terminal 21-amino acid truncated NS5B enzyme form; polyhistidine (C); made in house; host or cells: Escherichia coli
Text: A chemically synthesized 75-mer version, designated DCoH75, whose sequence matches the 3′-end of D-RNA, and DCoH75ddC, where the 3′-terminal cytidine of DCoH75 is replaced by dideoxycytidine, were used for assaying the NS5B enzyme activity as described in Ferrari et al., 12th International Symposium on HCV and Related Viruses, P-306 (2005). The sequence of the template RNA was: 5′-UGUGCCGGUCUUUCUGAACGGGAUAUAAACCUGGCCAGCUUCAUCGAACAAGUUGCCGUGUCUAUGACAUAGAUC-3′. A soluble C-terminal 21-amino acid truncated NS5B enzyme form (NS5BΔCT21, from HCV-Con 1 isolate, genotype 1b, Genbank accession number AJ238799) was produced and purified from Escherichia coli as C-terminal polyhistidine-tagged fusion protein as described in Ferrari et al., J. Virol. 73:1649-1654 (1999). A typical assay contained 20 mM Hepes pH 7.3, 10 mM MgCl2, 60 mM NaCl, 100 μg/ml BSA, 20 units/ml RNasin, 7.5 mM DTT, 0.1 μM ATP/GTP/UTP, 0.026 μM CTP, 0.25 mM GAU, 0.03 μM RNA template, 20 μCi/ml [^33P]-CTP, 2% DMSO, and 30 or 150 nM NS5B enzyme. Reactions were incubated at 22° C. for 2 hours, then stopped by adding 150 mM EDTA, washed in DE81 filter plate in 0.5M di-basic sodium phosphate buffer, pH 7.0, and counted using Packard TopCount after the addition of scintillation cocktail. Polynucleotide synthesis was monitored by the incorporation of radiolabeled CTP. The effect of the Compounds of Formula (I) on the polymerase activity was evaluated by adding various concentrations of a Compound of Formula (I), typically in 10 serial 2-fold dilutions, to the assay mixture. The starting concentrations ranged from 200 μM to 1 μM. An IC50 value for the inhibitor, defined as the compound concentration that provides 50% inhibition of polymerase activity, was determined by fitting the cpm data to the Hill equation Y=100/(1+10^((LogIC50-X)*HillSlope)), where X is the logarithm of compound concentration, and Y is the % inhibition. Ferrari et al., 12th International Symposium on HCV and Related Viruses, P-306 (2005) described in detail this assay procedure. It should be noted that such an assay as described is exemplary and not intended to limit the scope of the invention. The skilled practitioner can appreciate that modifications including but not limited to RNA template, primer, nucleotides, NS5B polymerase form, buffer composition, can be made to develop similar assays that yield the same result for the efficacy of the compounds and compositions described in the invention.
NS5B polymerase inhibition data for selected Compounds of Formula (I) is provided below in Table 2, wherein the compound numbers correspond to the compound numbering set forth in the above specification.

[3] = NS5B polymerase inhibition, [33P]-CTP incorporation, 22° C. for 2 hours, read-out: IC50

| SMILES | EC50 [1] | IC50 [2, 3] | IC50 [2] |
| --- | --- | --- | --- |
| O=C(O)c1c(-c2ccc[nH]c2=O)c2c3occc3ccc2n1Cc1ccccc1F [Compound 1] | < 500 nM | < 25 nM |  |
| CS(=O)(=O)NC(=O)c1c(-c2ccc[nH]c2=O)c2c3occc3ccc2n1Cc1ccc(F)cc1F [Compound 4] | < 500 nM | 25 to 100 nM |  |
| CS(=O)(=O)NC(=O)c1c(-c2ccc[nH]c2=O)c2c3occc3ccc2n1Cc1ccccc1F [Compound 4] | < 500 nM | < 25 nM |  |
| CS(=O)(=O)NC(=O)c1c(-c2ccc[nH]c2=O)c2c3ccoc3ccc2n1Cc1ccc(F)cc1F [Compound 9] | > 1500 nM | < 25 nM |  |
| COc1ccc(S(=O)(=O)NC(=O)c2c(-c3ccc[nH]c3=O)c3c4ccoc4ccc3n2Cc2ccc(F)cc2F)cc1 [Compound 10] | > 1500 nM | 25 to 100 nM |  |
| CS(=O)(=O)Nc1cccc(S(=O)(=O)NC(=O)c2c(-c3ccc[nH]c3=O)c3c4ccoc4ccc3n2Cc2ccc(F)cc2F)c1 [Compound 11] | > 1500 nM | 25 to 100 nM |  |
| CS(=O)(=O)NC(=O)c1c(-c2ccc[nH]c2=O)c2c3c(ccc2n1Cc1cc(F)ccc1F)CCC3 [Compound 12] | 500 to 1500 nM | < 25 nM |  |
| Nc1cc(Cn2c(C(=O)O)c(-c3ccc[nH]c3=O)c3c4scnc4ccc32)ccn1 [Compound 13] | > 1500 nM | > 100 nM |  |
| Nc1cc(Cn2c(C(=O)O)c(-c3ccc[nH]c3=O)c3c4ncsc4ccc32)ccn1 [Compound 14] | 500 to 1500 nM | < 25 nM |  |
| O=C(O)c1c(-c2ccc[nH]c2=O)c2c3occc3ccc2n1Cc1ccc(F)cc1F [Compound 16] | 500 to 1500 nM | < 25 nM |  |
| O=C(O)c1c(-c2ccc[nH]c2=O)c2c3scnc3ccc2n1Cc1ccc(F)cc1F [Compound 16] | > 1500 nM | > 100 nM |  |
| O=C(O)c1c(-c2ccc[nH]c2=O)c2c3ncsc3ccc2n1Cc1ccc(F)cc1F [Compound 17] | > 1500 nM | < 25 nM |  |
| CCc1coc2c1ccc1c2c(-c2ccc[nH]c2=O)c(C(=O)O)n1Cc1cc(F)ccc1F [Compound 24] | > 1500 nM | > 100 nM |  |
| O=C(O)c1c(-c2ccc[nH]c2=O)c2c3sccc3ccc2n1Cc1cc(F)ccc1F [Compound 33] | > 1500 nM | 25 to 100 nM |  |
| O=C(O)c1c(-c2ccc[nH]c2=O)c2c3sccc3ccc2n1Cc1ccccc1F [Compound 34] | 500 to 1500 nM | 25 to 100 nM |  |
| O=C(O)c1c(-c2ccc[nH]c2=O)c2c3c(ccc2n1Cc1cc(F)ccc1F)OC(F)(F)O3 [Compound 37] | > 1500 nM | < 25 nM |  |
| O=C(O)c1c(-c2ccc[nH]c2=O)c2c3ccoc3ccc2n1Cc1ccccc1F [Compound 39] | > 1500 nM | 25 to 100 nM |  |
| O=C(O)c1c(-c2ccc[nH]c2=O)c2c3ccoc3ccc2n1Cc1cc(F)ccc1F [Compound 40] | > 1500 nM | 25 to 100 nM |  |
| Cc1ccccc1Cn1c(C(=O)O)c(-c2ccc[nH]c2=O)c2c3occc3ccc21 [Compound 41] | < 500 nM | < 25 nM |  |
| CCc1coc2c1ccc1c2c(-c2ccc[nH]c2=O)c(C(=O)O)n1Cc1ccccc1F [Compound 43] | > 1500 nM | > 100 nM |  |

| SMILES | EC50 [1] | IC50 [2, 3] | IC50 [2] |
| --- | --- | --- | --- |
| O=C(O)c1c(-c2ccc[nH]c2=O)c2c3occ(Cl)c3ccc2n1Cc1ccccc1F [Compound 45] | < 500 nM | < 25 nM |  |
| O=C(O)c1c(-c2ccc[nH]c2=O)c2c3occ(Cl)c3ccc2n1Cc1cc(F)ccc1F [Compound 46] | < 500 nM | < 25 nM |  |
| Cc1coc2c1ccc1c2c(-c2ccc[nH]c2=O)c(C(=O)O)n1Cc1cc(F)ccc1F [Compound 47] | > 1500 nM | > 100 nM |  |
| Cc1cccc(Cn2c(C(=O)O)c(-c3ccc[nH]c3=O)c3c4occ(C)c4ccc32)c1F [Compound 48] | > 1500 nM | > 100 nM |  |
| CS(=O)(=O)NC(=O)c1c(-c2ccc[nH]c2=O)c2c3ncsc3ccc2n1Cc1ccccc1F [Compound 50] | < 500 nM | < 25 nM |  |
| CCOC(=O)c1c(-c2ccccc2F)c2c3c(C)c(C)[nH]c3ccc2n1Cc1ccccc1 [Compound 51] | > 1500 nM |  | > 100 nM |
| Cc1ccccc1Cn1c(C(=O)NS(C)(=O)=O)c(-c2ccc[nH]c2=O)c2c3ncsc3ccc21 [Compound 51] | < 500 nM |  | < 25 nM |
| CS(=O)(=O)NC(=O)c1c(-c2ccc[nH]c2=O)c2c3sccc3ccc2n1Cc1cc(F)ccc1F [Compound 52] | > 1500 nM | < 25 nM |  |
| CS(=O)(=O)NC(=O)c1c(-c2ccc[nH]c2=O)c2c3c(ccc2n1Cc1ccccc1F)OC(F)(F)O3 [Compound 56] | > 1500 nM |  | < 25 nM |
| CCS(=O)(=O)NC(=O)c1c(-c2ccc[nH]c2=O)c2c3occc3ccc2n1Cc1cc(F)ccc1F [Compound 57] | < 500 nM | < 25 nM |  |
| CS(=O)(=O)NC(=O)c1c(-c2ccc[nH]c2=O)c2c3c(ccc2n1Cc1cc(F)ccc1F)CCO3 [Compound 59] | < 500 nM |  | < 25 nM |
| Cc1ccc(Cn2c(C(=O)NS(C)(=O)=O)c(-c3ccc[nH]c3=O)c3c4occc4ccc32)c(C)c1 [Compound 60] | < 500 nM | < 25 nM |  |
| Cc1ccccc1Cn1c(C(=O)NS(C)(=O)=O)c(-c2ccc[nH]c2=O)c2c3occc3ccc21 [Compound 61] | < 500 nM | < 25 nM |  |
| O=C(NS(=O)(=O)C1CC1)c1c(-c2ccc[nH]c2=O)c2c3occc3ccc2n1Cc1cc(F)ccc1F [Compound 62] | < 500 nM | < 25 nM |  |
| CC(C)S(=O)(=O)NC(=O)c1c(-c2ccc[nH]c2=O)c2c3occc3ccc2n1Cc1cc(F)ccc1F [Compound 63] | < 500 nM | < 25 nM |  |
| CC(C)S(=O)(=O)NC(=O)c1c(-c2ccc[nH]c2=O)c2c3occc3ccc2n1Cc1ccccc1F [Compound 64] | < 500 nM | < 25 nM |  |
| O=C(NS(=O)(=O)C1CC1)c1c(-c2ccc[nH]c2=O)c2c3occc3ccc2n1Cc1ccccc1F [Compound 65] | < 500 nM | < 25 nM |  |
| Cc1cccc(Cn2c(C(=O)NS(C)(=O)=O)c(-c3ccc[nH]c3=O)c3c4occc4ccc32)c1F [Compound 66] | < 500 nM | < 25 nM |  |
| CS(=O)(=O)NC(=O)c1c(-c2ccc[nH]c2=O)c2c3occc3ccc2n1Cc1ccccc1Cl [Compound 67] | < 500 nM | < 25 nM |  |
| CCS(=O)(=O)NC(=O)c1c(-c2ccc[nH]c2=O)c2c3occc3ccc2n1Cc1ccccc1F [Compound 68] | < 500 nM | < 25 nM |  |
